# Target: T1, human SCD1 enzyme (Homo sapiens, UniProt O00767)
# T1 sequence (O00767 1-359): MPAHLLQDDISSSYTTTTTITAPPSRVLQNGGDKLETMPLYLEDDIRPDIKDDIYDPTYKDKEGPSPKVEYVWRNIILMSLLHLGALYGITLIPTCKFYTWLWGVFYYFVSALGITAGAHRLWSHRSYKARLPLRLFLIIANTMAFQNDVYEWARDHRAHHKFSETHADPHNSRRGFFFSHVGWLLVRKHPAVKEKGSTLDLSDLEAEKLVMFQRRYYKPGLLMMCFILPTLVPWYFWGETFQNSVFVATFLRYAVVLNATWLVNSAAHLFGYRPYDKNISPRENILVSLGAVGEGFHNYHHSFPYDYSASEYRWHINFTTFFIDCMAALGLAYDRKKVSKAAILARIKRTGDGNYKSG
# Experiment: Tritiated water release assay (conversion of radiolabeled stearoyl-CoA to oleoyl-CoA)
# Assay type: biochemical
# Conditions: 10 μM concentration of test compounds; microsomal SCD1, 3H stearoyl CoA, 37° C. 30 minutes; percent of control reaction; read-out: % Inhibition
# Procedure: The in-vitro activity of the compounds of the present invention against stearoyl coenzyme desaturase was determined by following conversion of radiolabeled-stearoyl-CoA to oleoyl-CoA using human SCD1 enzyme using a previously published assay procedure with some modifications (Barbara R Talamo and Konrad Bloch, Analytical Biochemistry, 1969, 29, 300-304). This assay protocol is only illustrative and is not meant to limit to the scope of the present invention.
# In this assay the microsomal SCD1 enzyme desaturates its substrate, Stearoyl CoA (purchased from American Radiochemicals Ltd.) which is tritiated at C9 and C10 positions. Test compounds were dissolved in dimethylsulfoxide and tested at 10 μM final concentration. Before substrate addition, the test compound or standard reference compound (conjugated linoleic acid at 100 μM final concentration) were pre-incubated in reaction buffer with the enzyme for 10 minutes at 30° C. with shaking. Reaction buffer was prepared as described in literature (Obukowicz et al. JPET, 1998, 287, 157-166) except that the MgCl2, ATP (purchased from Sigma) and CoA (purchased from Sigma) concentrations were changed to 4.9 mM, 7.2 mM and 0.54 mM respectively. The desaturation reaction was initiated by addition of 0.5 μCi of ^3H stearoyl CoA and incubated at 37° C. for 30 minutes with shaking. A control reaction was set without any test compound/reference inhibitor to capture maximum enzymatic activity in the assay. Inhibition of enzyme activity was calculated as a percent of this control reaction giving maximum catalysis and the results are given in Table 5.
# Table 5: Tritiated water release assay at 10 μM substrate concentration *Conjugated Linoleic acid was used as a reference standard
row,SMILES,inhibition at 10 µM
1,"CC(=O)Oc1cccc(C#Cc2ccc(N3CCC(Oc4ccccc4F)C3)nn2)c1 (stereo in doubt) [Example 68, 3-(2-{6-[(3S)-3-(2-Fluorophenoxy)azolan-1-yl]-3-pyridazinyl}-1-ethynyl)phenyl acetate]",92%
2,"CC(=O)Oc1ccc(C#Cc2ccc(N3CCC(Oc4ccccc4F)C3)nn2)cc1 (stereo in doubt) [Example 70, 4-[{6-[(3S)-3-(2-Fluorophenoxy)azolan-1-yl]pyridazin-3-yl}ethynyl]phenyl acetate]",96%
3,"O=C(c1ccccc1C(F)(F)F)N1CCN(c2ccc(C#CCO)cn2)CC1 [Example 1, 4-[5-(3-Hydroxy-1-propynyl)-2-pyridyl]piperazino-2-trifluoromethylphenylmethanone]",36%
4,"O=C(c1ccccc1C(F)(F)F)N1CCN(c2ccc(C#CCO)nn2)CC1 [Example 3, 4-[6-(3-Hydroxy-1-propynyl)-3-pyridazinyl]piperazino-2-trifluoromethylphenyl-methanone]",51%
5,"CC(C)(O)C#Cc1cnc(N2CCN(C(=O)c3ccccc3C(F)(F)F)CC2)nc1 [Example 4, 4-[5-(3-Hydroxy-3-methyl-1-butynyl)-2-pyrimidinyl]piperazino-2-trifluoromethylphenyl-methanone]",22%
6,"CCC(O)C#Cc1ccc(N2CCN(C(=O)c3ccccc3C(F)(F)F)CC2)nc1 (centres unmarked) [Example 6, 4-[5-(3-Hydroxy-1-pentynyl)-2-pyridyl]piperazino-2-trifluoromethylphenylmethanone]",24%
7,CC(C)(C)c1ccc(OCC#Cc2ccc(N3CCN(C(=O)c4ccccc4C(F)(F)F)CC3)nc2)cc1 [Example 10],37%
8,N#Cc1ccc(OCC#Cc2ccc(N3CCN(C(=O)c4ccccc4C(F)(F)F)CC3)nc2)nc1 [Example 12],11%
9,"Fc1ccc(OCC#Cc2ccc(N3CCN(c4ccc(C(F)(F)F)cn4)CC3)nc2)cc1 [Example 14, 1-{5-[3-(4-Fluorophenoxy)prop-1-yn-1-yl]-2-pyridyl}-4-(5-trifluoromethylpyridin-2-yl)piperazine]",35%
10,"CC(=O)NCC#Cc1ccc(N2CCN(C(=O)c3ccccc3C(F)(F)F)CC2)nc1 [Example 15, N1-(3-{6-[4-(2-Trifluoromethylbenzoyl)piperazino]-3-pyridyl}-2-propynyl)acetamide]",49%
11,"CCCC#Cc1ccc(N2CCN(C(=O)c3ccccc3C(F)(F)F)CC2)nc1 [Example 17, 4-[5-(1-Pentynyl)-2-pyridyl]piperazino-2-trifluoromethylphenylmethanone]",40%
12,"CC(C)(C)C#Cc1ccc(N2CCN(C(=O)c3cc(Cl)ccc3Cl)CC2)nc1 [Example 19, 2,5-Dichlorophenyl-4-[5-(3,3-dimethyl-1-butynyl)-2-pyridyl]piperazinomethanone]",14%
13,"O=C(c1cc(Cl)ccc1Cl)N1CCN(c2ccc(C#Cc3ccccc3)cn2)CC1 [Example 21, 2,5-Dichlorophenyl-4-[5-(2-phenyl-1-ethynyl)-2-pyridyl]piperazinomethanone]",40%
14,"O=C(c1ccccc1C(F)(F)F)N1CCN(c2ccc(C#Cc3ccc(O)c(F)c3)cn2)CC1 [Example 24, 1-{5-[(3-Fluoro-4-hydroxyphenyl)ethynyl]-2-pyridyl}piperazin-4-yl-(2-trifluoromethylphenyl)methanone]",79%
15,"O=C(c1ccccc1C(F)(F)F)N1CCN(c2ccc(C#Cc3cccc(O)c3)cn2)CC1 [Example 25, 4-{5-[2-(3-Hydroxyphenyl)-1-ethynyl]-2-pyridyl}piperazino-2-trifluoromethylphenyl methanone]",97%
16,CC(=O)Oc1ccccc1C#Cc1ccc(N2CCN(C(=O)c3ccccc3C(F)(F)F)CC2)nc1 [Example 29],24%
17,"COc1ccc(C#Cc2ccc(N3CCN(C(=O)c4ccccc4C(F)(F)F)CC3)nc2)cc1 [Example 30, 4-{5-[2-(4-Methoxyphenyl)-1-ethynyl]-2-pyridyl}piperazino-2-trifluoromethylphenyl methanone]",26%
18,"COc1cccc(C#Cc2ccc(N3CCN(C(=O)c4cc(Cl)ccc4Cl)CC3)nc2)c1 [Example 31, 2,5-Dichlorophenyl-4-{5-[2-(3-methoxyphenyl)-1-ethynyl]-2-pyridyl}piperazino-methanone]",21%

# The remaining lines, values ahead:
row,inhibition at 10 µM,SMILES
1,95%,"Oc1ccc(C#Cc2ccc(N3CCC(Oc4ccccc4F)C3)nn2)cc1 (stereo in doubt) [Example 71, 4-[{6-[(3S)-3-(2-Fluorophenoxy)azolan-1-yl]pyridazin-3-yl}ethynyl]phenol]"
2,57%,"O=C(c1cc(Cl)ccc1Cl)N1CCN(c2ccc(C#CCO)cn2)CC1 [Example 2, 4-[5-(3-Hydroxy-1-propynyl)-2-pyridyl]piperazino-2,5-dichlorophenylmethanone]"
3,19%,"O=C(c1ccccc1C(F)(F)F)N1CCN(c2ccc(C#CC3(O)CCCC3)cn2)CC1 [Example 5, 4-{5-[2-(1-Hydroxycyclopentyl)-1-ethynyl]-2-pyridyl}piperazino-2-trifluoromethyl phenylmethanone]"
4,0.35%,"O=C(c1ccccc1C(F)(F)F)N1CCN(c2ccc(C#CC(O)C34CC5CC(CC(C5)C3)C4)cn2)CC1 (centres unmarked) [Example 7, 4-[5-{3-Hydroxy-3-(1-adamantyl)-1-propynyl}-2-pyridyl]piperazino-2-trifluoromethyl-phenylmethanone]"
5,42%,"O=C(c1ccccc1C(F)(F)F)N1CCN(c2ccc(C#CC(O)c3ccccc3)cn2)CC1 (centres unmarked) [Example 8, 4-[5-(3-Hydroxy-3-phenyl-1-propynyl}-2-pyridyl}piperazino-2-trifluoromethylphenyl-methanone]"
6,86%,"O=C(c1ccccc1C(F)(F)F)N1CCN(c2ccc(C#CCOC3CCCC3)cn2)CC1 [Example 9, 4-[5-(3-Cyclopentyloxy-1-propynyl)-2-pyridyl]piperazino-2-trifluoromethylphenyl-methanone]"
7,63%,"O=C(c1ccccc1C(F)(F)F)N1CCN(c2ccc(C#CCOc3ccc(F)cc3)cn2)CC1 [Example 11, 4-[5-(3-(4-Fluorophenoxy)-1-propynyl)-2-pyridyl]piperazino-2-trifluoromethylphenyl-methanone]"
8,92%,O=C(c1ccccc1C(F)(F)F)N1CCN(c2ccc(C#CCOc3ccc(O)cc3)cn2)CC1 [Example 13]
9,42%,"CCCCS(=O)(=O)NCC#Cc1ccc(N2CCN(C(=O)c3ccccc3C(F)(F)F)CC2)nc1 [Example 16, N1-(3-{6-[4-(2-Trifluoromethylbenzoyl)piperazino]-3-pyridyl}-2-propynyl)-1-butane sulfonamide]"
10,26%,"CC(C)(C)C#Cc1ccc(N2CCN(C(=O)c3ccccc3C(F)(F)F)CC2)nc1 [Example 18, 4-[5-(3,3-Dimethyl-1-butynyl)-2-pyridyl]piperazino-2-trifluoromethylphenylmethanone]"
11,38%,"O=C(c1ccccc1C(F)(F)F)N1CCN(c2ccc(C#Cc3ccccc3)cn2)CC1 [Example 20, 4-[5-(2-Phenyl-1-ethynyl)-2-pyridyl]piperazino-2-trifluoromethylphenylmethanone]"
12,84%,CC(=O)Oc1ccc(C#Cc2ccc(N3CCN(C(=O)c4ccccc4C(F)(F)F)CC3)nc2)cc1 [Example 22]
13,91%,"O=C(c1ccccc1C(F)(F)F)N1CCN(c2ccc(C#Cc3ccc(O)cc3)cn2)CC1 [Example 23, 4-{5-[2-(4-Hydroxyphenyl)-1-ethynyl]-2-pyridyl}piperazino-2-trifluoromethylphenyl methanone]"
14,27%,"CCOC(=O)COc1cccc(C#Cc2ccc(N3CCN(C(=O)c4ccccc4C(F)(F)F)CC3)nc2)c1 [Example 26, Ethyl-2-[3-(2-{6-[4-(2-trifluoromethylbenzoyl)piperazino]-3-pyridyl}-1-ethynyl)-phenoxy]acetate]"
15,30%,"O=C(O)COc1cccc(C#Cc2ccc(N3CCN(C(=O)c4ccccc4C(F)(F)F)CC3)nc2)c1 [Example 27, 2-[3-(2-{6-[4-(2-Trifluoromethylbenzoyl)piperazino]-3-pyridyl}-1-ethynyl)phenoxy]-acetic acid]"
16,98%,O=C(c1cc(Cl)ccc1Cl)N1CCN(c2ccc(C#Cc3cccc(O)c3)cn2)CC1 [Example 28]
17,35%,COC(=O)c1ccc(C#Cc2ccc(N3CCN(C(=O)c4ccccc4C(F)(F)F)CC3)nc2)cc1 [Example 32]

# Source: US20080182851A1, “ACETYLENE DERIVATIVES AS STEAROYL COA DESATURASE INHIBITORS” (Glenmark Pharmaceuticals S.A., priority 2006, published 2008)
